Assays:
[1] = tested on: RXF, 393; assay: NCI one-dose screening, renal cancer RXF, 393; format: cell-based, human; settings: 10 μM
[2] = tested on: U251; assay: NCI one-dose screening, CNS cancer U251; format: cell-based, human; settings: 10 μM
[3] = tested on: human tumor cell lines; assay: NCI one-dose screening, Mean / Delta / Range of growth percent over all tested cell lines; format: cell-based; settings: 10 μM; for Growth Percent Delta: delta over all cell lines; for Growth Percent Mean: mean over all cell lines; for Growth Percent Range: range over all cell lines
[4] = tested on: IGROV1; assay: NCI one-dose screening, ovarian cancer IGROV1; format: cell-based, human; settings: 10 μM
[5] = tested on: M14; assay: NCI one-dose screening, melanoma M14; format: cell-based, human; settings: 10 μM
[6] = tested on: SNB-75; assay: NCI one-dose screening, CNS cancer SNB-75; format: cell-based, human; settings: 10 μM
[7] = tested on: NCl/ADR-RES; assay: NCI one-dose screening, breast cancer NCl/ADR-RES; format: cell-based, human; settings: 10 μM; listed under Ovarian cancer
[8] = tested on: MDA-MB-468; assay: NCI one-dose screening, breast cancer MDA-MB-468; format: cell-based, human; settings: 10 μM
[9] = NCI one-dose screening, renal cancer A489; format: cell-based, human; settings: 10 μM
[10] = tested on: KM12; assay: NCI one-dose screening, colon cancer KM12; format: cell-based, human; settings: 10 μM
[11] = tested on: HT29; assay: NCI one-dose screening, colon cancer HT29; format: cell-based, human; settings: 10 μM
[12] = tested on: SK-MEL-28; assay: NCI one-dose screening, melanoma SK-MEL-28; format: cell-based, human; settings: 10 μM
[13] = tested on: HCT-116; assay: NCI one-dose screening, colon cancer HCT-116; format: cell-based, human; settings: 10 μM
[14] = tested on: HS 578-T; assay: NCI one-dose screening, breast cancer HS 578-T; format: cell-based, human; settings: 10 μM; Breast cancer
[15] = tested on: NCI-H522; assay: NCI one-dose screening, non-small cell lung cancer NCI-H522; format: cell-based, human; settings: 10 μM
[16] = tested on: SNB-19; assay: NCI one-dose screening, CNS cancer SNB-19; format: cell-based, human; settings: 10 μM
[17] = tested on: SR; assay: NCI one-dose screening, leukemia SR; format: cell-based, human; settings: 10 μM
[18] = tested on: A549/ATCC; assay: NCI one-dose screening, non-small cell lung cancer A549/ATCC; format: cell-based, human; settings: 10 μM
[19] = tested on: MDA-MB-231/ATCC; assay: NCI one-dose screening, breast cancer MDA-MB-231/ATCC; format: cell-based, human; settings: 10 μM
[20] = tested on: MALME-3M; assay: NCI one-dose screening, melanoma MALME-3M; format: cell-based, human; settings: 10 μM
[21] = tested on: BT-549; assay: NCI one-dose screening, breast cancer BT-549; format: cell-based, human; settings: 10 μM
[22] = tested on: HOP-62; assay: NCI one-dose screening, non-small cell lung cancer HOP-62; format: cell-based, human; settings: 10 μM
[23] = tested on: TK-10; assay: NCI one-dose screening, renal cancer TK-10; format: cell-based, human; settings: 10 μM
[24] = tested on: HOP-92; assay: NCI one-dose screening, non-small cell lung cancer HOP-92; format: cell-based, human; settings: 10 μM
[25] = tested on: MDA, -MB-435; assay: NCI one-dose screening, breast cancer MDA, -MB-435; format: cell-based, human; settings: 10 μM; listed under Melanoma
[26] = tested on: UACC-257; assay: NCI one-dose screening, melanoma UACC-257; format: cell-based, human; settings: 10 μM
[27] = tested on: T-47D; assay: NCI one-dose screening, breast cancer T-47D; format: cell-based, human; settings: 10 μM
[28] = tested on: SK-MEL-2; assay: NCI one-dose screening, melanoma SK-MEL-2; format: cell-based, human; settings: 10 μM
[29] = tested on: PC-3; assay: NCI one-dose screening, prostate cancer PC-3; format: cell-based, human; settings: 10 μM
[30] = tested on: CAKI-1; assay: NCI one-dose screening, renal cancer CAKI-1; format: cell-based, human; settings: 10 μM
[31] = tested on: UO-31; assay: NCI one-dose screening, renal cancer UO-31; format: cell-based, human; settings: 10 μM
[32] = tested on: HL-60, TB; assay: NCI one-dose screening, leukemia HL-60, TB; format: cell-based, human; settings: 10 μM
[33] = tested on: ACHN; assay: NCI one-dose screening, renal cancer ACHN; format: cell-based, human; settings: 10 μM
[34] = tested on: SF-268; assay: NCI one-dose screening, CNS cancer SF-268; format: cell-based, human; settings: 10 μM
[35] = tested on: OVCAR-5; assay: NCI one-dose screening, ovarian cancer OVCAR-5; format: cell-based, human; settings: 10 μM
[36] = tested on: LOX IMVI; assay: NCI one-dose screening, melanoma LOX IMVI; format: cell-based, human; settings: 10 μM
[37] = tested on: UACC-62; assay: NCI one-dose screening, melanoma UACC-62; format: cell-based, human; settings: 10 μM
[38] = tested on: MOLT-4; assay: NCI one-dose screening, leukemia MOLT-4; format: cell-based, human; settings: 10 μM
[39] = tested on: SK-OV-3; assay: NCI one-dose screening, ovarian cancer SK-OV-3; format: cell-based, human; settings: 10 μM
[40] = tested on: SF-295; assay: NCI one-dose screening, CNS cancer SF-295; format: cell-based, human; settings: 10 μM
[41] = tested on: OVCAR-8; assay: NCI one-dose screening, ovarian cancer OVCAR-8; format: cell-based, human; settings: 10 μM
[42] = tested on: MCF7; assay: NCI one-dose screening, breast cancer MCF7; format: cell-based, human; settings: 10 μM
[43] = tested on: OVCAR-3; assay: NCI one-dose screening, ovarian cancer OVCAR-3; format: cell-based, human; settings: 10 μM
[44] = tested on: DU145; assay: NCI one-dose screening, prostate cancer DU145; format: cell-based, human; settings: 10 μM
[45] = tested on: SF-539; assay: NCI one-dose screening, CNS cancer SF-539; format: cell-based, human; settings: 10 μM
[46] = tested on: PRMI-8226 cell line; assay: NCI one-dose screening, leukemia PRMI-8226; format: cell-based, human; settings: 10 μM
[47] = tested on: NCI-H226; assay: NCI one-dose screening, non-small cell lung cancer NCI-H226; format: cell-based, human; settings: 10 μM
[48] = tested on: K562cell line; assay: NCI one-dose screening, leukemia K562; format: cell-based, human; settings: 10 μM
[49] = tested on: SK-MEL-5; assay: NCI one-dose screening, melanoma SK-MEL-5; format: cell-based, human; settings: 10 μM
[50] = tested on: HCT-15; assay: NCI one-dose screening, colon cancer HCT-15; format: cell-based, human; settings: 10 μM
[51] = tested on: PC-3 prostate cancer cell line; assay: SRB assay cell viability, PC-3 prostate cancer cell line; format: cell-based, human; settings: PC-3 prostate cancer cell line, Table II prints no unit, μM printed, read-out: SRB assay: 50% inhibition of cancer cell proliferation of sample concentration (IC50) of PC-3 prostate cancer cell line
[52] = tested on: SN12C; assay: NCI one-dose screening, renal cancer SN12C; format: cell-based, human; settings: 10 μM
[53] = tested on: 786-O; assay: NCI one-dose screening, renal cancer 786-O; format: cell-based, human; settings: 10 μM
[54] = tested on: EKVX; assay: NCI one-dose screening, non-small cell lung cancer EKVX; format: cell-based, human; settings: 10 μM
[55] = tested on: NCI-H460; assay: NCI one-dose screening, non-small cell lung cancer NCI-H460; format: cell-based, human; settings: 10 μM
[56] = tested on: COLO 205; assay: NCI one-dose screening, colon cancer COLO 205; format: cell-based, human; settings: 10 μM
[57] = tested on: NCI-H23; assay: NCI one-dose screening, non-small cell lung cancer NCI-H23; format: cell-based, human; settings: 10 μM
[58] = tested on: HCC-2998; assay: NCI one-dose screening, colon cancer HCC-2998; format: cell-based, human; settings: 10 μM

4-(o-phenylmethyl thio)anthra[2,1-c] [1,2,5]thiadiazol-6,11-dione [C48]
Growth Percent RXF 393 [1]: 95.88%
Growth Percent U251 [2]: 62.36%
Growth Percent Delta [3]: 75.31%
Growth Percent Mean [3]: 80.61%
Growth Percent Range [3]: 120.98%
Growth Percent IGROV1 [4]: 80.06%
Growth Percent M14 [5]: 94.25%
Growth Percent SNB-75 [6]: 76.30%
Growth Percent NCI/ADR-RES [7]: 59.53%
Growth Percent MDA-MB-468 [8]: 53.68%
Growth Percent A498 [9]: 85.54%
Growth Percent KM12 [10]: 103.11%
Growth Percent HT29 [11]: 104.31%
Growth Percent SK-MEL-28 [12]: 105.73%
Growth Percent HCT-116 [13]: 92.15%
Growth Percent HS 578T [14]: 83.69%
Growth Percent NCI-H522 [15]: 74.81%
Growth Percent SNB-19 [16]: 103.54%
Growth Percent SR [17]: 23.00%
Growth Percent A549/ATCC [18]: 104.68%
Growth Percent MDA-MB-231/ATCC [19]: 60.72%
Growth Percent MALME-3M [20]: 96.77%
Growth Percent BT-549 [21]: 95.35%
Growth Percent HOP-62 [22]: 59.51%
Growth Percent TK-10 [23]: 122.97%
Growth Percent HOP-92 [24]: 89.91%
Growth Percent MDA-MB-435 [25]: 80.61%
Growth Percent UACC-257 [26]: 87.32%
Growth Percent T-47D [27]: 51.89%
Growth Percent SK-MEL-2 [28]: 73.29%
Growth Percent PC-3 [29]: 73.26%
Growth Percent CAKI-1 [30]: 81.47%
Growth Percent UO-31 [31]: 62.14%
Growth Percent HL-60(TB) [32]: −79.53%
Growth Percent ACHN [33]: 89.76%
Growth Percent SF-268 [34]: 74.73%
Growth Percent OVCAR-5 [35]: 126.28%
Growth Percent LOX IMVI [36]: 30.01%
Growth Percent UACC-62 [37]: 90.69%
Growth Percent MOLT-4 [38]: 67.31%
Growth Percent SK-OV-3 [39]: 93.79%
Growth Percent SF-295 [40]: 104.92%
Growth Percent OVCAR-8 [41]: 76.29%
Growth Percent MCF7 [42]: 66.12%
Growth Percent OVCAR-3 [43]: 5.30%
Growth Percent DU145 [44]: 101.53%
Growth Percent SF-539 [45]: 78.04%
Growth Percent RPMI-8226 [46]: 48.56%
Growth Percent NCI-H226 [47]: 95.71%
Growth Percent K562 [48]: 32.30%
Growth Percent SK-MEL-5 [49]: 87.54%
Growth Percent HCT-15 [50]: 38.57%
IC50 [51]: > 15 µM
Growth Percent SN12C [52]: 85.97%
Growth Percent 786-0 [53]: 100.36%
Growth Percent EKVX [54]: 104.56%
Growth Percent NCI-H460 [55]: 88.86%
Growth Percent COLO 205 [56]: 99.23%
Growth Percent NCI-H23 [57]: 53.21%
Growth Percent HCC-2998 [58]: 124.00%

4-(2,5-dichloro-phenyl thio)anthra[2,1-c] [1,2,5]thiadiazol oxazole-6,11-dione [C35]
Growth Percent RXF 393 [1]: 91.47%
Growth Percent U251 [2]: 63.57%
Growth Percent Delta [3]: 85.86%
Growth Percent Mean [3]: 87.13%
Growth Percent Range [3]: 121.42%
Growth Percent IGROV1 [4]: 78.13%
Growth Percent M14 [5]: 98.95%
Growth Percent SNB-75 [6]: 47.00%
Growth Percent NCI/ADR-RES [7]: 83.13%
Growth Percent MDA-MB-468 [8]: 90.73%
Growth Percent A498 [9]: 87.70%
Growth Percent KM12 [10]: 101.18%
Growth Percent HT29 [11]: 106.27%
Growth Percent SK-MEL-28 [12]: 122.69%
Growth Percent HCT-116 [13]: 81.94%
Growth Percent HS 578T [14]: 72.51%
Growth Percent NCI-H522 [15]: 91.29%
Growth Percent SNB-19 [16]: 84.39%
Growth Percent SR [17]: 41.15%
Growth Percent A549/ATCC [18]: 102.75%
Growth Percent MDA-MB-231/ATCC [19]: 82.44%
Growth Percent MALME-3M [20]: 94.30%
Growth Percent BT-549 [21]: 79.66%
Growth Percent HOP-62 [22]: 63.18%
Growth Percent TK-10 [23]: 111.76%
Growth Percent HOP-92 [24]: 65.12%
Growth Percent MDA-MB-435 [25]: 105.64%
Growth Percent UACC-257 [26]: 119.38%
Growth Percent T-47D [27]: 63.44%
Growth Percent SK-MEL-2 [28]: 101.38%
Growth Percent PC-3 [29]: 80.59%
Growth Percent CAKI-1 [30]: 108.19%
Growth Percent UO-31 [31]: 91.54%
Growth Percent HL-60(TB) [32]: 72.72%
Growth Percent ACHN [33]: 88.50%
Growth Percent SF-268 [34]: 82.95%
Growth Percent OVCAR-5 [35]: 108.82%
Growth Percent LOX IMVI [36]: 73.05%
Growth Percent UACC-62 [37]: 94.09%
Growth Percent MOLT-4 [38]: 1.27%
Growth Percent SK-OV-3 [39]: 84.09%
Growth Percent SF-295 [40]: 78.93%
Growth Percent OVCAR-8 [41]: 85.13%
Growth Percent MCF7 [42]: 85.16%
Growth Percent OVCAR-3 [43]: 99.41%
Growth Percent DU145 [44]: 102.44%
Growth Percent SF-539 [45]: 88.74%
Growth Percent RPMI-8226 [46]: 77.16%
Growth Percent NCI-H226 [47]: 112.00%
Growth Percent K562 [48]: 47.80%
Growth Percent SK-MEL-5 [49]: 108.82%
Growth Percent HCT-15 [50]: 92.85%
IC50 [51]: > 15 µM
Growth Percent SN12C [52]: 96.65%
Growth Percent 786-0 [53]: 67.49%
Growth Percent EKVX [54]: 109.03%
Growth Percent NCI-H460 [55]: 100.98%
Growth Percent COLO 205 [56]: 109.65%
Growth Percent NCI-H23 [57]: 74.59%
Growth Percent HCC-2998 [58]: 109.37%

Reference: patent US8877748B2, “Heterocyclic fused anthraquinone derivatives, manufacturing method and pharmaceutical composition using thereof” (National Defense Medical Center, priority 2012, dated 2014)
